In data set [1] the target is T1, human D2R/β-arrestin (Homo sapiens (Human), UniProt P14416). In words: cell-based. The following applies: cAMP Antagonist, CHO-K1 cells expressing human D2R/β-arrestin; antagonist mode, 2.5 μM forskolin and 2.7 nM quinpirole.
The nature of data set [2]: Pharmacokinetic and brain distribution study in mice. In kind it is in vivo. The following applies: single intraperitoneal dose 30 mg/kg, male C57BL/6 mice. On the procedure:
Pharmacokinetic Studies on Mice Brains
Twelve male C57BL/6 mice were weighed and administered intraperitoneally with a dose of test compound (Examples 90, 157, 125) solution formulation. The dosing volume administered for the intraperitoneal route was at 10 mL/kg. Blood samples (approximately […]) were collected from retro-orbital plexus of each mouse under light isoflurane anesthesia at 0.08, 0.5, 1, 2, 4, and 8 hr. Following the collection of blood, plasma was also harvested by centrifugation and stored at −70° C. until analysis. After collection of plasma, the animals were euthanized and brain samples were isolated at 0.08, 0.5, 1, 2, 4, and 8 hr. Tissue samples (brain) were homogenized using ice-cold phosphate buffer saline (pH 7.4) and homogenates were stored below −70° C. until analysis. Total homogenate volume was three times the tissue weight. Concentrations of test compound in mouse plasma and brain samples were determined by LC-MS/MS method.
Identical extraction procedures were used for the plasma/brain homogenate study samples and the spiked plasma calibration standards: A 25 μL sample of either study sample (plasma/brain) or spiked calibration standard was added to individual pre-labeled micro-centrifuge tubes. A volume of 100 μL of IS (antipyrine, 500 ng/mL) prepared in acetonitrile was then added to the micro-centrifuge tubes, except in a sample used as a negative control where only acetonitrile was added and vortexed for 5 minutes. Samples were centrifuged for 20 minutes at the speed of 4000 rpm at 4° C. Following centrifugation, 100 μL of the supernatant was sampled from each centrifuge tube and transferred into insert vials. These vials remained within the auto-sampler for the LC/MS/MS analysis. Standards used for calibration were prepared by spiking 10 μL of the test compound in 190 μL of control (used as a negative control) mouse plasma/brain homogenate.
The plasma and brain concentration-time data of test compounds was provided for data analysis. The plasma and brain concentration-time data was then used for the pharmacokinetic analysis. Non-Compartmental-Analysis module in Phoenix® WinNonlin® (Version 6.3) was used to assess the pharmacokinetic parameters. Peak plasma concentrations (Cmax) and time for the peak plasma concentrations (Tmax) were the observed values. The areas under the concentration time curve (AUClast and AUCinf) were calculated by linear trapezoidal rule. The terminal elimination rate constant, ke was determined by regression analysis of the linear terminal portion of the log plasma concentration-time curve.
Illustrative results are presented in FIG. 2, the pharmacokinetic parameters are as follow: […]

Data set [3] has as its system mice. In words: Amphetamine induced hyperactivity (AIH). The class given is in vivo. The following applies: in comparison with vehicle. On the procedure: Amphetamine Induced Hyperactivity Studies
Amphetamine-induced hyperactivity (AIH) was examined in eight identical open-field chambers (16.5″×16″×12″; AccuScan Instruments, Columbus, Ohio). Activity was detected by infrared beam breaks and recorded automatically by VersaMax software (AccuScan). Daily sessions were automatically binned in 5 minute intervals (VersaDat; AccuSacn) for statistical analysis. AIH was run over three consecutive days as follows:
Day 1: Mice were acclimated to the injection procedure by injecting 30 minutes prior to being placed in the chambers (to match the timing of day 3 compound administration). Mice were then placed into the open-field for 20 minutes and then removed for a saline injection (to match the timing of amphetamine administration on day 3). Mice were placed back into the open-field for an additional 30 minutes, at which point the mice were returned to their home cage.
Day 2 was run identically to Day 1, with the exception that the second day lasted for one hour (20 minutes→injection→40 minutes).
Day 3 was the amphetamine challenge day. Mice were pre-treated with D2 antagonist compounds (compound of Example 90) 30 minutes prior to being placed in the open field. After 20 minutes, mice were removed and challenged with amphetamine, following protocols known to one skilled in the art, for example Jones C. […]

The test system of data set [4] is mice. The data set can be described thus: Rotarod performance. The following applies: 30 mg/kg IP in mice. In kind it is in vivo. On the procedure: In the test, mice are placed on a horizontally oriented, rotating cylinder (rod) suspended above a cage floor, which is low enough not to injure the animal, but high enough to induce avoidance of fall. The mice naturally try to stay on the rotating cylinder, or rotarod, and avoid falling to the ground. Mice are administered clozaril at 3 mg/kg (test group); or a compound of Formula (I) (either 10 mg/kg or 30 mg/kg or vehicle). The mice have an average weight of 20 grams (as do the mice in all examples herein). The length of time that a given animal stays on this rotating rod is a measure of the animal's balance, coordination, physical condition, and motor-planning. The speed of the rotarod is mechanically driven, and is held constant.
For orientation: Falling from the rotarod earlier than controls is read as motor impairment.

The next data set can be described thus: Brain protein binding. The class given is in vitro ADME.
Data set [5] concerns the target T1, human D2R/β-arrestin. In words: β-arrestin agonist assay (PathHunter). In kind it is cell-based. The following applies: CHO-K1 cells expressing human D2R/β-arrestin; agonist mode. Here is the method:
The detection reagent (9.6 μL, Buffer:Emerald II:Galactor-Star in a 19:5:1 ratio, i.e., 14.06 mL:3.7 mL:0.74 mL=18.5 mL) was then added to the agonist plates.

For data set [6], the target named is T1, human D2R/β-arrestin. The data set can be described thus: Gi/cAMP agonist assay (Lance Ultra cAMP, forskolin). In kind it is cell-based. Particulars: CHO-K1 cells expressing human D2R/β-arrestin; agonist mode, 2.5 μM forskolin. Here is the method:
Eu-cAMP tracer solution (10 μl, PerkinElmer, 360 μl of Tracer in 17.64 ml kit buffer) and ULight-anti-cAMP solution (10 μl, 120 μL antibody in 17.88 ml kit buffer) was then added to each well.

Like-named read-outs stand apart in the source and are kept apart here.

The term IC50 denotes the midpoint of a concentration-inhibition curve. A high value points to a need for much substance. The term AUC denotes concentration integrated over time. High values mean more exposure, low ones less exposure. One may read the Cmax as the highest concentration seen after dosing. As a reminder, the fraction unbound is the share of the substance not bound to proteins or other matrix. As usually defined, the EC50 is the concentration needed to bring the measured effect to its halfway point. Higher therefore signals a need for much substance.

T1 sequence (P14416 whole entry): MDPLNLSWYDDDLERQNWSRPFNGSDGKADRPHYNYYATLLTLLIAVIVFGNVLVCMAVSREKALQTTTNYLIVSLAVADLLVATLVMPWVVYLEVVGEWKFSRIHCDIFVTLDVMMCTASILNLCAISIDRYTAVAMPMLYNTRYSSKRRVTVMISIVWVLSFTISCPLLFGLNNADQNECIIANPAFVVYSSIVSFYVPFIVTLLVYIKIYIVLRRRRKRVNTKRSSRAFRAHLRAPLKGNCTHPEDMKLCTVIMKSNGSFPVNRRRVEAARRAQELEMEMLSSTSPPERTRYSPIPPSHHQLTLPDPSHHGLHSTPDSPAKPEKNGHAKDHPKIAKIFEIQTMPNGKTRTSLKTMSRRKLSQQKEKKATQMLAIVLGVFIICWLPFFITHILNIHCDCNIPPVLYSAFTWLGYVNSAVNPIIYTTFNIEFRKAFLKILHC

As to `CC1(Oc2ccc(Cl)cc2)CCN(CCOc2ccccc2C(F)(F)F)CC1` [Compound 90, 4-(4-Chlorophenoxy)-4-methyl-1-(2-(2-(trifluoromethyl)phenoxy)ethyl) piperidine], the IC50 on human D2R/β-arrestin [1] is > 30 µM. Further, in data set [2] (brain), the “Brain AUC” value was 34.2 µM·h and the “Brain Cmax” value amounted to 7230 nM. Also, the half-life in data set [2] (mouse, ip, brain, read-out: Brain T1/2 (converted)) was 4.2 h. In addition, in data set [2] (mouse, ip, plasma), the AUC was 4.4 µM·h and the Cmax was 1440 nM. Further, in data set [2] (mouse, ip, plasma, read-out: Plasma T1/2 (converted)), the half-life was 4.7 h. Also, in the data set on mice [3], the “attenuation of amphetamine induced hyperactivity (AIH)” value was “dose-dependently attenuates AIH in mice and shows efficacy at 30 mg/kg”. Moreover, the “motoric side effects (rotarod performance)” value in the data set with mice [4] is recorded as “does not induce motoric side effects”. Besides, the fraction unbound in “Brain protein binding” is < 0.001. On human D2R/β-arrestin [5], this molecule showed an EC50 of 1 to 10 µM. Also, the EC50 on human D2R/β-arrestin [6] is < 0.1 µM.

(Values after patent US11498896B2 (The Broad Institute, Inc., priority 2014, dated 2022).)
